Consider 24 molecules from patent publication US20240166652A1, “MODULATORS OF THE INTEGRATED STRESS PATHWAY” (Calico Life Sciences LLC, priority 2017, published 2024).

Broadly, the pEC50 is the negative decadic logarithm of the EC50, by convention in mol/L.

pEC50: −log10 of the molar value.

One experiment has as its system ATF4 luciferase reporter in HEK293T cells. As to the kind of experiment: ATF4-Luc assay (ATF4 luciferase reporter, tunicamycin-treated HEK293T cells). It is filed as cell-based, human. Particulars: HEK293T cells carrying the ATF4 luciferase reporter, 1 μg/mL tunicamycin, 7 hours. In general terms: A reporter such as luciferase makes a cellular process visible.
For `O=C(COc1ccc(Cl)cc1)NC12CCC(NC(=O)COc3ccc(F)cc3)(CC1)[C@@H](O)C2` [Compound 708, 2-(4-chlorophenoxy)-N-{(3S)-4-[2-(4-fluorophenoxy)acetamido]-3-hydroxybicyclo[2.2.2]octan-1-yl}acetamide], the pEC50 was more than 8.00.

The same experiment, now with this note: Homo sapiens, HEK-293T; HEK293T cells carrying the ATF4 luciferase reporter, 1 μg/mL tunicamycin, 7 hours.
Consider `O=C(COc1ccc(Cl)c(F)c1)NC12CC(N(CCCOc3ccc(Cl)c(F)c3)CCCOc3ccc(Cl)c(F)c3)(C1)C2` [Compound 704, N-(3-{bis[3-(4-chloro-3-fluorophenoxy)propyl]amino}bicyclo[1.1.1]pentan-1-yl)-2-(4-chloro-3-fluorophenoxy)acetamide], for which the pEC50 is 6.30 to 6.60.
Still for that read-out and setting: next, `O=C(COc1ccc(Cl)c(F)c1)NC12CC(NCCCOc3ccc(Cl)c(F)c3)(C1)C2` [Compound 705, 2-(4-chloro-3-fluorophenoxy)-N-(3-{[3-(4-chloro-3-fluorophenoxy)propyl]amino}bicyclo[1.1.1]pentan-1-yl)acetamide]: 7.30 to 8.00.
The same measure, in the same setting: under `O=C(COc1ccc(Cl)c(F)c1)NC12CCC(NC(CCOc3ccc(Cl)cc3)C(=O)O)(CC1)C[C@@H]2O` (stereo partly drawn) [Compound 706, 2-({(3S)-4-[2-(4-chloro-3-fluorophenoxy)acetamido]-3-hydroxybicyclo[2.2.2]octan-1-yl}amino)-4-(4-chlorophenoxy)butanoic acid] stands 6.30 to 6.60; under `O=C(COc1ccc(Cl)c(F)c1)NC12CCC(NC(=O)COc3ccc(Cl)c(F)c3)(CC1)C(NCCO)C2` (stereo not drawn) [Compound 707, N,N′-{2-[(2-hydroxyethyl)amino]bicyclo[2.2.2]octane-1,4-diyl}bis[2-(4-chloro-3-fluorophenoxy)acetamide]], more than 8.00; under `O=C(COc1cc(F)c2cn[nH]c2c1)NC12CCC(NC(=O)COc3ccc4cn[nH]c4c3)(CC1)[C@@H](O)C2` [Compound 709], more than 8.00.
Still for that read-out and setting: next, `O=C(COc1cc(F)c2cn[nH]c2c1)NC12CCC(NC(=O)COc3cc(F)c4cn[nH]c4c3)(CC1)[C@@H](O)C2` [Compound 710, N,N′-[(2S)-2-hydroxybicyclo[2.2.2]octane-1,4-diyl]bis{2-[(4-fluoro-1H-indazol-6-yl)oxy]acetamide}]: more than 8.00; `CN(CCO)C1CC2(NC(=O)COc3ccc(Cl)c(F)c3)CCC1(NC(=O)COc1ccc(Cl)c(F)c1)CC2` (stereo not drawn) [Compound 711, N,N′-{2-[(2-hydroxyethyl)(methyl)amino]bicyclo[2.2.2]octane-1,4-diyl}bis[2-(4-chloro-3-fluorophenoxy)acetamide]]: more than 8.00; `CNC(CC(=O)NC12CCC(NC(=O)COc3ccc(Cl)c(F)c3)(CC1)[C@@H](O)C2)c1ccc(Cl)cc1` (stereo partly drawn) [Compound 712, N-{(3S)-4-[2-(4-chloro-3-fluorophenoxy)acetamido]-3-hydroxybicyclo[2.2.2]octan-1-yl}-3-(4-chlorophenyl)-3-(methylamino)propanamide]: 5.70 to 6.30.
For `O=C(CC(NC1COC1)c1ccc(Cl)cc1)NC12CCC(NC(=O)COc3ccc(Cl)c(F)c3)(CC1)[C@@H](O)C2` (stereo partly drawn) [Compound 713, N-{(3S)-4-[2-(4-chloro-3-fluorophenoxy)acetamido]-3-hydroxybicyclo[2.2.2]octan-1-yl}-3-(4-chlorophenyl)-3-[(oxetan-3-yl)amino]propanamide], the pEC50 was less than 5.70.
In the case of `O=C(COc1ccc(Cl)c(F)c1)NC12CCC(NC(=O)COc3ccc(Cl)c(F)c3)(CC1)C(NCC(F)(F)F)C2` (stereo not drawn) [Compound 714, N,N′-{2-[(2,2,2-trifluoroethyl)amino]bicyclo[2.2.2]octane-1,4-diyl}bis[2-(4-chloro-3-fluorophenoxy)acetamide]], the pEC50 is 7.30 to 8.00.
On the same count and under the same terms, next, `O=C(COc1ccc(Cl)c(F)c1)NC12CCC(NC(=O)COc3ccc(Cl)c(F)c3)(CC1)C(N1CC(F)(F)C1)C2` (stereo not drawn) [Compound 715, N,N′-[2-(3,3-difluoroazetidin-1-yl)bicyclo[2.2.2]octane-1,4-diyl]bis[2-(4-chloro-3-fluorophenoxy)acetamide]]: 7.30 to 8.00; `COCC1CC2(NC(=O)COc3ccc(Cl)c(F)c3)CCC1(NC(=O)COc1ccc(Cl)c(F)c1)CC2` (stereo not drawn) [Compound 716, N,N′-[2-(methoxymethyl)bicyclo[2.2.2]octane-1,4-diyl]bis[2-(4-chloro-3-fluorophenoxy)acetamide]]: 7.30 to 8.00.
For the molecule `O=C(COc1ccc(Cl)c(F)c1)NC12C=C(C(=O)O)C(NC(=O)COc3ccc(Cl)c(F)c3)(CC1)CC2` [Compound 717, 1,4-bis[2-(4-chloro-3-fluorophenoxy)acetamido]bicyclo[2.2.2]oct-2-ene-2-carboxylic Acid], the pEC50 is 6.60 to 7.30.
The same measure, in the same setting: next, `COC(=O)C1=CC2(NC(=O)COc3ccc(Cl)c(F)c3)CCC1(NC(=O)COc1ccc(Cl)c(F)c1)CC2` [Compound 718, methyl 1,4-bis[2-(4-chloro-3-fluorophenoxy)acetamido]bicyclo[2.2.2]oct-2-ene-2-carboxylate]: more than 8.00.
The same measure, in the same setting: under `O=C(COc1ccc(Cl)c(F)c1)NC12CCC(NC(=O)COc3ccc(Cl)c(F)c3)(CC1)C(N1CC(O)C1)C2` (stereo not drawn) [Compound 719, N,N′-[2-(3-hydroxyazetidin-1-yl)bicyclo[2.2.2]octane-1,4-diyl]bis[2-(4-chloro-3-fluorophenoxy)acetamide]] stands 7.30 to 8.00.
The same measure, in the same setting: under `O=C(COc1cc(F)c2cn[nH]c2c1)NC12CCC(NC(=O)COc3ccc(C(F)(F)F)nc3)(CC1)[C@@H](O)C2` [Compound 720] stands more than 8.00.
For `O=C(COc1cc(F)c2cn[nH]c2c1)NC12CCC(NC(=O)COc3ccc(F)cc3)(CC1)[C@@H](O)C2` [Compound 721], the negative-log EC50 (pEC50) is more than 8.00.
Same read-out and setting: under `O=C(COc1ccc(Cl)c(F)c1)NC12CCC(NC(=O)COc3ccc(Cl)c(F)c3)(CC1)C(NC1COC1)C2` (stereo not drawn) [Compound 722, N,N′-{2-[(oxetan-3-yl)amino]bicyclo[2.2.2]octane-1,4-diyl}bis[2-(4-chloro-3-fluorophenoxy)acetamide]] stands more than 8.00; under `CCCC1CC2(NC(=O)COc3ccc(Cl)c(F)c3)CCC1(NC(=O)COc1ccc(Cl)c(F)c1)CC2` (stereo not drawn) [Compound 723, N,N′-(2-propylbicyclo[2.2.2]octane-1,4-diyl)bis[2-(4-chloro-3-fluorophenoxy)acetamide]], 7.30 to 8.00; under `O=C(COc1cc(F)c2cn[nH]c2c1)NC12CCC(NC(=O)COc3ccc(OC(F)(F)F)c(F)c3)(CC1)[C@@H](O)C2` [Compound 724], more than 8.00.
Same read-out and setting: under `O=C(COc1cc(F)c2cn[nH]c2c1)NC12CCC(NC(=O)COc3ccc(Cl)cc3)(CC1)[C@@H](O)C2` [Compound 725, 2-(4-chlorophenoxy)-N-[(25)-4-{2-[(4-fluoro-1H-indazol-6-yl)oxy]acetamido}-2-hydroxybicyclo[2.2.2]octan-1-yl]acetamide] stands more than 8.00; under `O=C(COc1ccc2c(c1)OC(F)(F)O2)NC12CCC(NC(=O)COc3ccc(Cl)c(F)c3)(CC1)[C@@H](O)C2` [Compound 726, 2-(4-chloro-3-fluorophenoxy)-N-[(2S)-4-{2-[(2,2-difluoro-2H-1,3-benzodioxol-5-yl)oxy]acetamido}-2-hydroxybicyclo[2.2.2]octan-1-yl]acetamide], more than 8.00; under `O=C(COc1cc(F)c2cn[nH]c2c1)NC12CCC(NC(=O)COc3ccc(Cl)c(F)c3)(CC1)[C@@H](O)C2` [Compound 727, 2-(4-chloro-3-fluorophenoxy)-N-[(2S)-4-{2-[(4-fluoro-1H-indazol-6-yl)oxy]acetamido}-2-hydroxybicyclo[2.2.2]octan-1-yl]acetamide], more than 8.00.
